Results on two compounds are retold here after patent US20250099517A1, “Use of Lactobacillus reuteri Y7 strain for prevention or treatment of ocular diseases” (Taipei Medical University, priority 2023, published 2025).

The nature of data set [1]: food intakes of mice during the experiment. It counts as in vivo, C57BL/6 mice. To be noted: for food intakes of mice: LU, lutein 6.15 mg/kg bw oral daily, blue light, Mean±S.E.M., n=6. As for the experimental part:
In the present invention, six-week-old male C57BL/6 mice were placed in a breeding cage in which the following feeding conditions were kept: temperature, 22±2° C., humidity, 55±5%, and the light-dark cycle of 12-hour light and 12-hour dark. The mice were fed with fodders at the adaptive phase for one week; general solid fodders for test animals were administered to mice of the control group and mice during the adaptive phase. The initial day was defined as Day 0 when the adaptive phase for the mice was over. From the next week, the mice were interfered with samples under test and exposed to blue light. During the experiments, the mice were monitored for weights as well as water intakes and checked for any physiological change. The data for experiments through electroretinography (ERG), fndus photography (FP), fundus fluorescein angiograph (FFA), spectral-domain optical coherence tomography (SD-OCT) and intraocular pressure (IOP) were collected at Day 0, Day 21 and Day 35, as shown in FIG. 1 for the experimental process. The C57BL/6 mice, which weighed between 23 and 25 g, were divided into seven groups randomly. In each group, the six mice induced by blue light successfully were incorporated in experiments. The samples dissolved in deuterium-depleted water (DDW) were fed to mice through oral tubes once a day. The groups were named and introduced as follows: • (1) Solvent not classified group (NC): The mice were fed with 0.2 ml deuterium-depleted water (DDW) through tubes; • (2) Negative control group (Blue light (BL)): The mice were fed with 0.2 ml deuterium-depleted water (DDW) through tubes and exposed to blue light; • (3) Low-dosage Y7 probiotics group […]): The mice were fed with low-dosage Y7 probiotics (probiotic counts of 1.0×10^8 CFU/ml dissolved in 0.2 ml DDW per day) and exposed to blue light; • (4) High-dosage Y7 probiotics group […]): The mice were fed with high-dosage Y7 probiotics (probiotic counts of 1.0×10^9 CFU/ml dissolved in 0.2 ml DDW per day) and exposed to blue light; • (5) Positive control group (lutein (LU)): The mice were fed with lutein and exposed to blue light. The recommended human dosage of lutein is 30 mg. The mouse cage (48×25×20 cm) placed inside a stainless ventilated box was equipped with blue light boards as blue light sources around and above. In the experiment of animals exposed to blue light, six-week-old mice staying in the mouse cage were fed with drinking water as well as fodders and exposed to 400 Lux blue light illumination under the light-dark cycle of 12-hour light and 12-hour dark. The experiment was aimed at causing mice' late dry macular disease induced by chronic light injuries for simulating a human being's macular disease after long-term exposure to short-wavelength blue light from 3C products in daily life. All data written as the form of mean±standard error of the mean (S.E.M.) were used in the statistical analysis through the one-way ANOVA and the Newman-Keuls test; p<0.05 denoted statistical difference. In the experiment, the software for the statistical analysis was Graph pad Prism (v9.2.0). The data such as food intake, water intake, body weight, organ weight and other clinical examination data were analyzed with the one-way ANOVA.

Data set [2] has as its system photosensitivity of a retina. Description: scotopic electroretinography (ERG), blue light-induced macular disease model. Format: in vivo, C57BL/6 mice. The method, then: The C57BL/6 mice, which weighed between 23 and 25 g, were divided into seven groups randomly. In each group, the six mice induced by blue light successfully were incorporated in experiments. The samples dissolved in deuterium-depleted water (DDW) were fed to mice through oral tubes once a day. The groups were named and introduced as follows: • (1) Solvent not classified group (NC): The mice were fed with 0.2 ml deuterium-depleted water (DDW) through tubes; • (2) Negative control group (Blue light (BL)): The mice were fed with 0.2 ml deuterium-depleted water (DDW) through tubes and exposed to blue light; • (3) Low-dosage Y7 probiotics group […]): The mice were fed with low-dosage Y7 probiotics (probiotic counts of 1.0×10^8 CFU/ml dissolved in 0.2 ml DDW per day) and exposed to blue light; • (4) High-dosage Y7 probiotics group […]): The mice were fed with high-dosage Y7 probiotics (probiotic counts of 1.0×10^9 CFU/ml dissolved in 0.2 ml DDW per day) and exposed to blue light; • (5) Positive control group (lutein (LU)): The mice were fed with lutein and exposed to blue light. The recommended human dosage of lutein is 30 mg. The mouse cage (48×25×20 cm) placed inside a stainless ventilated box was equipped with blue light boards as blue light sources around and above. In the experiment of animals exposed to blue light, six-week-old mice staying in the mouse cage were fed with drinking water as well as fodders and exposed to 400 Lux blue light illumination under the light-dark cycle of 12-hour light and 12-hour dark. The experiment was aimed at causing mice' late dry macular disease induced by chronic light injuries for simulating a human being's macular disease after long-term exposure to short-wavelength blue light from 3C products in daily life. The mydriatic agent, Atropine (0.125%), was distilled into mice' eyes for mydriasis in advance. Then, mice were anesthetized with Zoletil (40 mg/kg) and Xylazine (10 mg/kg) through intraperitoneal (IP); 2% Methocel gel as a lubricant was distilled into eyes of a deeply anesthetized mouse having placed on a clean bench. The ERG analysis was enabled with the electrodes installed completely. A mouse was stimulated with single excitation light for collection of ERG from which a negative a-wave and a positive b-wave were generated. For the ERG analysis, the excitation time was defined as the period from the initial time of excitation light emitted to the time of the a-wave (b-wave) peak detected; the amplitude of a-wave was defined as the amplitude difference between the background ERG value at the initial time of excitation light emitted and the ERG value of the a-wave peak; the amplitude of b-wave was defined as the amplitude difference between the ERG value of the a-wave peak and the ERG value of the b-wave peak. Any change observed in the excitation time or an amplitude referred to functions of retinal cells normal or abnormal. In electrophysiology, the a-wave denotes the healthy condition of photoreceptors at outside of a retina; the b-wave denotes the healthy condition of medial nerve cells of a retina such as bipolar cells and horizontal cells; the c-wave denotes the healthy condition of retinal pigment epithelium (RPE) on a retina. In the experiment, the scotopic electroretinography (ERG) was used in inspecting influence of exposure to blue light on photosensitivity of a mouse's retina. When light was received by a mouse's eyes, opsins and 11-cis-retinal on photoreceptor cells were combined with each other for a visual cycle such that a membrane potential difference was produced for transmission of ERG by the retinal neuron layer sequentially, that is, the electroretinographic physiological function test was conducted through recording peak potential differences generated by different nerve cells. […]

The mark [3] stands for this setting: LU lutein group, ERG Day 35, p<0.05.

With “Lactobacillus reuteri Y7 [Y7 probiotics]”, the “food intakes compared with the BL group” value in data set [1] (mouse, in vivo) is given as “significantly higher”. In data set [2] (mouse, in vivo), the “amplitude of a-waves compared with the BL group” value was “increased significantly”; the “amplitude of a-waves compared with the LU group” value is on record as “decreased significantly”; the “amplitude of a-waves compared with the NC group” value is reported as “decreased significantly”; the “amplitude of b-waves, BL group versus treated group” value is reported as “BL group decreased significantly compared with the LU or Y7H group”. Further, in data set [2] (mouse, in vivo), the “amplitude of c-waves compared with the BL group” value is “significant difference”.

On to `CC1=C[C@H](O)CC(C)(C)[C@H]1/C=C/C(C)=C/C=C/C(C)=C/C=C/C=C(C)/C=C/C=C(C)/C=C/C1=C(C)C[C@@H](O)CC1(C)C` [lutein, reference compound], for which the “food intakes of mice” value in data set [1] (Day7) was 5.71 ± 1.17; in data set [1] (Day14), 4.17 ± 1.15; in data set [1] (Day21), 5.04 ± 1.82; in data set [1] (Day28), 5.33 ± 2.17; in data set [1] (Day35) it was 4.43 ± 2.12. The “amplitude of b-waves, BL group versus treated group” value in data set [2] (setting [3]) is given as “BL group decreased significantly compared with the LU or Y7H group”. Further, the “amplitude of c-waves compared with the BL group” value in data set [2] (setting [3]) is recorded as “significant difference”.
